Results taken from patent publication US20060275510A1, “Formulations for menopausal syndromes” (Hong Kong Jockey Club Institute of Chinese Medicine Limited, priority 2005, published 2006).

Columns and labels:
Format in all cases: in vivo
[1] = system: pentobarbital sodium-injected mice; test: Sleeping test (pentobarbital sodium-induced sleep); conditions: female KM mice; oral; Composition I 56 g (crude herb)/kg/d 14 days, Diazepam 0.5 mg/kg once on day 14; pentobarbital sodium 35 mg/kg i.p. 1 h after last dose
Protocol: According to Xu S Y. (1991 ), Chen Q. (1996 ), Zhang J T. (1998 ), Zhu X D. and Tang X C. (1998 ), an agent is deemed to have sedative and hypnotic effects if it can prolong the duration of the sleep, as indicated by the disappearance of right reflex, of pentobarbital sodium-injected mice
Drug, dose, and the administration formulation: • For negative control group: 0.9% saline. • For positive control group: Diazepam, purchased from BangNing Pharmaceutical Co. Ltd. The dose was 0.5 mg/kg weight/d. […] The dose was 56 g (crude herb)/kg weight/d. […] Method:
Thirty normal female mice weighed between 18-20 g were randomized into 3 groups of 10: the negative control group, the positive control group, and the test group. For the negative control and testing group, the drugs were administered to the mice orally with the doses and formulations indicated, once per day for consecutive 14 days. For the positive control group, the drug was given on the day fourteen orally. One hour after the last administrations, all mice were injected with 35 mg/kg of pentobarbital sodium intraperitoneally. The duration of the disappearance of righting reflex was observed and recorded. According to Zhang J T. (1998 ), the duration of the disappearance of righting reflex equals to the sleeping time.

KM mice [2] = test: Open field test (spontaneous activity); conditions: female KM mice; oral; Composition I 14 g (crude herb)/kg/d 14 days, Diazepam 1.0 mg/kg once on day 14
Method: KM mice, females, weighed between 18-20 g, purchased from Shanghai Experimental Animal Center, the Chinese Academy of Sciences.
• Multi-functional Auto-Motion Recorder for Mouse/Rat: manufactured by Facility Station of Shandong Academy of Medical Science. Product code: YLS-1B.
Drug, dose, and the administration formulation: • For negative control group: 0.9% saline. • For positive control group: Diazepam as described above. The dose was 1.0 mg/kg weight/d. […] The dose was 14 g (crude herb)/kg weight/d. […] Method:
Thirty normal female mice weighed between 18-20 g were randomized into 3 groups of 10: negative control, positive control and the test group. For the negative control and testing group, the drugs were administered to the mice orally with the doses and formulations described above, once per day for consecutive 14 days. For the positive control group, the drug was given on the day fourteen orally. One hour after the last administration, the mice were individually placed into a box with infrared detection light to record their spontaneous activities in 3 minutes.

normal female mice = test: Dark-light box test on normal mice; conditions: within 10 minutes, oral, Composition I 56 g (crude herb)/kg/d 14 days, Diazepam 1.0 mg/kg once on day 14, 1 h after last dose
Protocol: In the experiment, mice were placed in Shimada light and dark box. The times of mice shuttling between the boxes and the duration of mice staying in the dark/light box were recorded.
• Shimada light and dark box: size: 40 cm×40 cm×12 cm, having a light box (20 cm×20 cm×12 cm) at the center, and two dark boxes (10 cm×10 cm×12 cm) at two diagonal corners. Two L-shaped tracks are connected to two sides of each dark box. Manufacturer: Shanghai Institute of Pharmaceutical Industry. Animals:
Thirty normal female mice weighed between 18-20 g were randomized into 3 groups of 10: negative control, positive control (Diazepam) and the test group. The mice in the negative and test groups were administered orally with respective drugs and doses as indicated above, once a day for consecutive 14 days. The mice in the positive control group received only one dose orally as indicated above on day fourteen. 1 hour after the last administration on day fourteen, all the mice were placed in the Shimada light and dark box.

ovariectomized mice = test: Dark-light box test on ovariectomized mice; conditions: within 10 minutes, oral, Composition I 14 g (crude herb)/kg/d 14 days, Diazepam 1.0 mg/kg once on day 14, 1 h after last dose
Protocol: The same experiment of Example 5 was conducted on ovariectomized mice. […] See Xu S Y. (1991), Chen Q. (1996), Zhang J T. (1998).
Apparatus: Same as Example 5.
Animals: Same as Example 5.
Negative control group: 0.9% saline,
Positive control group: Diazepam, 1.0 mg/kg weight
Thirty female mice were anaesthetized by intraperitoneal injection with 35 mg/kg Pentobarbital Sodium. Two cuts were made on the back of the rats, each cut being 1.5 cm from the spine. The two ovaries were taken from the two cuts, respectively. The cuts were then sealed. 1 week after the ovariectomization, the 30 mice were randomly divided into 3 groups, and the same administration procedures as Example 5 were followed, using drugs and doses specified above. 1 hour after the last administration on day fourteen, all the mice were placed in the Shimada light and dark box.

ovariectomized rats [3] = test: Elevated plus-maze test on ovariectomized rats; conditions: oral, Composition I 14 g (crude herb)/kg/d 14 days, Diazepam 0.5 mg/kg once on day 14, 1 h after last dose
Method: SD rats, female, weighed 230-250 g, purchased from Shanghai Experimental Animal Center, the Chinese Academy of Sciences.
• For negative control group: 0.9% saline. • For positive control group: Diazepam as described above. The dose was 0.5 mg/kg weight. • For test group: Composition as prepared in Experiment 1. The dose was 14 g (crude herb)/kg weight/d. Method:
Thirty female rats were divided into the above-mentioned 3 groups randomly and were anaesthetized by intraperitoneal injection with 60 mg/kg Pentobarbital Sodium. Two cuts were made on the back of the rats, each cut being 1.5 cm from the spine. The two ovaries were taken from the two cuts, respectively. The cuts were then sealed. The drug administration began 1 week after the ovariectomization. […] The rats in the positive control group received Diazepam orally only once on day fourteen. 1 hour after the last administration, the rats were placed in a maze.

ovariectomized rats [4] = test: Serum estrogen and progesterone levels (RIA), uterus weight and visceral index in ovariectomized rats; conditions: ovariectomized SD rats, 28 days once daily, n = 6
Protocol: Female hormone stimulates estrogen in overiectomized female mice/rats.
SD rats, female, weighted between 220-250 g before administration, purchased from Shanghai Sino-British Sippr/BK LAB Animal Ltd., randomly split into 5 groups.
• Negative control group: 0.9% saline • Positive control group: • 1. Estradiol Benzoate, purchased from Shanghai No. 9 Pharmaceutical Ltd. Dose: 0.01 mg/kg weight/day • 2. ZuoGuiWan, purchased from Shanghai Leiyunshang Fengbang Pharmaceutical Co., Ltd. • 3. GengNianAn, purchased from Zhongxin Pharmacy Tianjin Leren Tang Pharmaceutical Factory. […] Dose: 1.0 ml/100 g weight/day • Positive control group: • 1. Estradiol Benzoate, Dose: […] dissolved in peanut oil (0.01 mg/ml). • 2. ZuoGuiWan, Dose: 7 g/kg weight/day dissolved in 0.5% CMC—Na, • 3. GengNianAn, Dose: 6 g/kg weight/day dissolved in 0.5% CMC—Na, • 5.
Thirty ovariectomized female SD rats weighed between 220.0-250.0 g were randomized into 5 groups: the negative control group, the positive control group, comprising 1. Estradiol Benzoate group, 2. ZuoGuiWan group, 3. GengNianAn group, and the test group. The rats in the negative control, ZuoGuiWan, GengNianAn and the test groups received respective drug and dose as indicated intragastrically. The rats in Estradiol Benzoate were injected with estradiol at the above-indicated dose. All rats received administration once everyday for consecutive 28 days. During the 28 days, a daily pap smear was performed before drug administration. Twenty-four hours after the last administration, all of the rats were weighed, anesthetized, blood withdrawn and killed. The uterus was then removed and half of the uterus was weight in wet. The other half of the uterus was dried for 8 hours in an oven for the measurement of dried weight. The serum estrogen and progesterone levels were determined using radioimmunoassay (RIA) method.

ovariectomized hamsters [5] = test: Ferric Reducing Ability of Plasma (FRAP) in ovariectomized hamsters; conditions: Positive control
Description: The higher the anti-oxidation level, the more Fe^2+ ions are reduced from Fe^3+ ions. See Benzie I F and Szeto Y T (1999).
47 female hamsters, weighed about 100 g, bred at the Laboratory Animal Services Center (LASEC) of the Chinese University of Hong Kong, were randomly divided into 6 groups.
Apparatus: • UV-visible spectrophometer: manufacturer Shimadzu, product code: UV-1601
Method: 47 female hamsters weighed 100 g were divided into 6 groups, including three test groups 1, 2, and 3, the positive control group 4, the negative control group 5, and the sham operated group 6.
The hamsters in groups 1-5 were ovariectomized. A month afterwards, the hamsters in groups 1-6 were administered intragastrically with the drugs and doses indicated above, once every day for consecutive 4 weeks. After 4 weeks of administration, blood samples were obtained from the orbital venous sinus, and were subjected to centrifugation at 10,000 rpm for 10 minutes to collect serum. 10 μl of serum was diluted with 490 μl double distilled water. 300 μl freshly prepared FRAP reagent was then added to initiate the reaction. The samples were placed under 593 nm to observe the changes of absorbance during the first 10 minutes of the reduction of Fe^3+ to Fe^2+. The increase in absorbance is an indicator of the level of reduction. The Ferric Reducing Ability of Plasma (FRAP) values were determined as follows: […]

ovariectomized hamsters [6] = test: Serum [non-HDL]/[HDL] ratio and kidney cholesterol in ovariectomized hamsters; conditions: Positive control, 17β Estradiol 21 day release 0.5 mg/pellet
Method: Animals: hamsters, female, weighed 100 g, bred at the Laboratory Animal Services Center (LASEC) of the Chinese University of Hong Kong, randomly divided into 6 groups.
Dose: 0.5 mg/pellet, catalogue no.: E121 • The sham operated group: hamsters received the operation but not ovariectomy. Method:
47 hamsters weighed 100 g were divided into 6 groups including the positive group, negative group, sham operated and 3 dosage groups (low, medium and high). All hamsters except those in the sham operated group received ovariectomy. A month after the ovariectomy operation, all hamsters were administered intragastrically with drugs and doses indicated above, once a day for consecutive 4 weeks. […] The non-HDL/HDL ratio in serum was analyzed according to See Ho K K W, Leung L K, Chan F L, Huang Y, Chen Z Y (2003).
The hamsters received administration intragastrically for another 4 weeks prior to killing by nitrogen narcosis. The cholesterol level in kidney was measured by gas chromatography.
300 mg of the kidney and 1 mg of the internal standard (IS), stigniastanol (Sigma, S-4297) was homogenized using Polytron homogenizer in 15 ml chloroform-methanol (2:1, v/v) and 3 ml 0.9% saline. […] The TMS-ether derivative was analyzed in a fused silica capillary column (SAC™-5, 30 m×0.25 mm, i.d.; Supelco, Inc., Bellefonte, Pa., USA) in a Shimadzu GC 14B GLC equipped with a flame-ionization detector (Shimadzu). […]

KM mice [7] = test: Step-down test on normal mice (scopolamine); conditions: n = 10 mice, oral 14 days: Composition I 14 g (crude herb)/kg/d, Huperzine A 1.5 ug/kg/d
Description: A step-down recorder, comprising a platform and a copper floor, is provided. The mice were placed on the copper floor. When the cooper floor is electrified, the normal reaction of the mice is to jump up to the platform to avoid the electric shock. After a period of time, the mice may forget about the shock and jump back to the floor. This jumping back to the floor is an “error reaction”. The mice that jump back to the floor received electric shock again and would jump back to the platform again. The duration between the first jump up (to the platform) and back (to the floor) is called the “latency period”. The number of jumping backs (error reactions) in a certain period of time could serve as an indicator of the memory of the mice.
Based on the Principle, agents that are able to reduce the error reactions of mice in a certain period of time and […] the latent period are deemed effective in memory improvement. Xu S Y. (1991), Chen Q. (1996), Zhang J T. (1998),Yang J, Wang J, et al. (2000).
Code: YLS-2 T, purchased from Facility station of Shandong Academy of Medical Science Method:
Thirty normal female mice were randomized into 3 groups of 10: negative control, positive control (Huperzine A) and the test group. Mice in the three groups received respective drugs and doses orally as indicated above, once per day for consecutive 14 days. An hour after the last administration, all the mice were administrated with 2 mg/kg scopolamine intraperitoneally. 30 minutes later, the mice were placed in the step down recorder for 5 minutes for pre-adaptation. After the pre-adaptation, the copper floor was electrified for 5 minutes. The number of electric shocks each mouse received in the 5 minutes was recorded. After 24 hours, the test was conducted again.
The number of shocked mice, the latency period of each mouse, and the average number of error reactions in 3 minutes were recorded.

KM mice [8] = test: Step through test on normal mice (ethanol-induced memory impairment); conditions: oral 14 days: Composition I 14 g (crude herb)/kg/day, Huperzine A 1.5 ug/kg/day
Description: A Step Through Test Box for Mouse with a light room and a dark room inside is provided. The mice are placed in the light room with their back facing the door. When the mice come out from the light room and enter the dark room, they get shocked, such behavior is called an error reaction. The first duration before an error reaction occurs after a mouse is placed in the box is called the latency period. Mice bearing better memories have longer latency period and commit less error reactions in a certain period of time.
Agents that are able to increase the latency period and reduce error reactions of mice in the Step Through Test Box are deemed effective in improving the memory of animals. Reference: Xu S Y (1991), Chen Q (1996), Zhang J T. (1998), Yang J, Want J. et al (2000), and Zhu X D and Tang X C.
Animals: KM mice, female, 18-20 g, purchased from Shanghai Experimental Animal Center of the Chinese Academy of Sciences.
Thirty normal female mice weighed between 18-20 g were randomized into 3 groups of 10: negative control, positive control (Huperzine A) and the test group. The mice were administered orally with the above-indicated doses and drugs, once a day for 14 days. An hour after the last administration (day 14), all the mice were orally given 45% ethanol (0.1 ml/10 g). 30 minutes later, the mice were placed in the light room of the test box with their back facing the door. When the mice entered the dark room and got shocked, the latency period was recorded (the 1st latency period). The test was conducted again 24 hours later, wherein the number of mice entering the dark room (error reaction) and the latency period (the 2nd latency period) were recorded.

[9] = Composition I 7 g (crude herb)/kg/day i.g., ZuoGuiWan 7 g/kg/day, GengNianAn 6 g/kg/day, Estradiol Benzoate 0.01 mg/kg/day injected
[10] = 5 minutes pre-adaptation (first test), scopolamine 2 mg/kg i.p.
[11] = 24 hours after scopolamine administration
[12] = The second test (24 h later), 45% ethanol

## CN1C(=O)CN=C(c2ccccc2)c2cc(Cl)ccc21 [Diazepam]
[1]
  Sleeping Time: 2927.8 ± 1061.2 s
KM mice [2]
  Locomotion times during the 3 minutes, 1 hour after drug: 61.0 ± 11.6
  Locomotion times during the 3 minutes, 3 hour after drug: 46.2 ± 11.3
Normal female mice
  Shuttle Time: 76.1 ± 8.90
  Time spent in dark box: 166.6 ± 45.05
Ovariectomized mice
  Shuttle Time: 20.5 ± 10.7 (p = 0.874)
  Time spent in dark box: 47.4 ± 31.9
Ovariectomized rats [3]
  Time spent in open arm × 100% / Time spent in both arms: 6 ± 7%
  Times of entering open arm × 100% / Times of entering both arms: 12 ± 11%

## C[C@]12CC[C@@H]3c4ccc(OC(=O)c5ccccc5)cc4CC[C@H]3[C@@H]1CC[C@@H]2O [Estradiol Benzoate]
Ovariectomized rats [4]; [9]
  Serum Estrogen: 33.00 ± 21.76 ng/mL
  Serum Progesterone: 25.85 ± 6.15 ng/mL
Ovariectomized rats [4]; doses as for serum levels
  Visceral Index: 0.246 ± 0.030 g/100 g BW
  Wet weight of uterus: 0.597 ± 0.064 g

## C[C@]12CC[C@@H]3c4ccc(O)cc4CC[C@H]3[C@@H]1CC[C@@H]2O [17β Estradiol]
Ovariectomized hamsters [5]
  Percentage of FRAP value remained after 4 weeks of treatment: 88.32 ± 21.06 (p = 0.17) %
Ovariectomized hamsters [6]
  Kidney cholesterol: 3.5 ± 0.4 mg/g

## C/C=C1\[C@H]2C=C(C)C[C@]1(N)c1ccc(=O)[nH]c1C2 [Huperzine A]
KM mice [7]; [10]
  Number of shocks per mouse: 5.7 ± 2.7
  Total number of shocks: 51
KM mice [7]; [11]
  First step down latency period: 200.6 ± 137.2 s
  Number of error reactions in 3 minutes: 8
  Number of shocked mice: 5
KM mice [8]; The first test, 45% ethanol 0.1 ml/10 g orally
  The 1st latency period: 19.3 ± 16.16
KM mice [8]; [12]
  No. of error reactions: 1.4 ± 2.0
  The 2nd latency period: 196.2 ± 121.9
